Laboratory results from patent publication US20250002467A1, “DESIGN, SYNTHESIS AND MECHANISMS OF ANTICANCER ACTIVITY OF NEW ACETYLATED 5-AMINOSALICYLATE-THIAZOLINONE HYBRID DERIVATIVES” (University of Sharjah, priority 2023, published 2025).
Entries after “also recorded” stand apart in the source; their conditions may differ.

Columns and labels:
[1] = tested on: HeLa cells; assay: Cell cycle analysis by flow cytometry, HeLa; format: cell-based; settings: 1 μM, peak at 24 hours, Control 36.9%
Method: The effect of the HH32 and HH33 compounds on the distribution of cell cycle at different time points (2, 4, 8, 24, 48, and 72 hours) was analyzed using flow cytometry. Briefly, the cells were harvested and fixed in 70% ethanol for 24 hours at −20° C. The fixed cells were treated with RNAase […] (Sigma Aldrich, Missouri, USA) and stained with propidium iodide […] (Sigma Aldrich, Missouri, USA). The data were acquired using BD Accuri C6 flow cytometer (Becton Dickenson, San Jose, CA, USA) and analysis was done using Flow Jo software (Tree Star, Inc, Ashland, OR, USA).

[2] = tested on: HCT-116; assay: SRB cytotoxicity assay, HCT-116; format: cell-based
Description: (§1) Eight different cancer cell lines were acquired from the Radiobiology and Experimental Radio Oncology lab, University Medical Center, Hamburg University, Hamburg, Germany. MCF7, MDA-MB-231 (breast cancer), and A549 (lung cancer) cells were maintained in RPMI medium while HCT116 (colon cancer), HepG2 (liver cancer), U87, U373 (glioblastoma), and HeLa (cervical cancer) were maintained in DMEM supplemented with 10% FBS and 1% penicillin/streptomycin (Sigma Aldrich, Missouri, USA). Normal human fibroblast (F180) cells were maintained in DMEM supplemented with 15% FBS. Normal human mammary epithelial cell line (HME1) were maintained in DMEM/F-12 medium supplemented with 10% FBS. All incubations were done at 37° C. in a humidified atmosphere of 5% CO2. All cell lines were authenticated by short tandem repeat (STR) profiling. The CDK4 knockout cells (provided by Dr. Samrein Ahmed, University of Sharjah, United Arab Emirates) were generated by CRISPR-CAS9 technology and were maintained in DMEM supplemented with 10% FBS.
(§2) The cytotoxic effects of HH32 and HH33 compounds were evaluated at various concentrations ranging from 0.0001 to 100 μM by sulphrhodamine-B (SRB) assay as described previously. The anti-proliferative activity was expressed as growth inhibitory concentration (IC50) values, which were calculated by the sigmoidal dose-response curve fitting method using Graph pad prism 6 software (GraphPad Software, San Diego, CA, USA).

[3] = tested on: MCF7; assay: SRB cytotoxicity assay, MCF7; format: cell-based; settings: for IC50: MCF7, SRB, mean ± SEM
Description: as §1, §2

[4] = tested on: MCF7 cells; assay: Transcriptomic analysis of HH33-treated MCF7 cells; format: cell-based; settings: confirmed by quantitative RT-PCR
[5] = tested on: MCF7 cells; assay: Metabolic analysis by GC-MS; format: cell-based
Method: The release of different metabolites following HH32 and HH33 treatment on MCF7 cells was detected using Gas Chromatography-Mass Spectrometry (GC-MS) (Shimadzu, Kyoto, Japan) as was described previously. GC-MS analysis was performed using a QP2010 gas chromatography-mass spectrometer (GC-2010 coupled with a GC-MS QP-2010 Ultra) equipped with an auto-sampler (AOC-20i+s) from Shimadzu (Tokyo, Japan), using Rtx-5 ms column (30 m length×0.25 mm inner diameter x 0.25 μm film thickness; Restek, Bellefonte, PA, USA). Helium (99.9% purity) was used as the carrier gas with the column flow rate of 1 mL/min. Data collection and analysis were performed using MSD Enhanced Chemstation software (Shimadzu, Kyoto, Japan). GC total ion chromatograms (TIC) and fragmentation patterns of the compound were identified using the NIST/EPA/NIH Mass Spectral Library (NIST 14).
Preprocessing and data analysis were performed using an in-house R script. Only compounds registered in Human Metabolome Database (HMDB 4.0) were considered for further analysis. Compounds with more than 70% of missing values were considered unreliable and therefore excluded. Probabilistic Quotient Normalization was used to normalize data due to dilution effects in the extraction procedure. Missing metabolite measurements were imputed using the k-nearest neighbor algorithm with k—3. […] To account for multiple testing, a false discovery rate (FDR) of <15% was applied to reduce the identification of false positives. FDRs were calculated using the q conversion algorithm in multiple comparisons. Principal component analysis (PCA) was used to visualize the metabolomic data. Data were mean-centered and scaled to unit variance before PCA.

[6] = tested on: F-180; assay: SRB cytotoxicity assay, normal fibroblast F-180; format: cell-based, human; settings: F-180 normal fibroblast, mean ± SEM
Description: as §1, §2

SMILES | G2/M phase accumulation [1] [%] | Selectivity index ([2]; F180 versus HCT116) | potency compared with doxorubicin ([2]; HCT-116 cells) | Selectivity index ([2]; HME1 versus HCT116) | Selectivity index ([3]; F180 versus MCF7) | Selectivity index ([3]; HME1 versus MCF7) | IC50 [3] [µM] | six shared genes (ATAD2, CDCA3, FAMIIIB, CDKN3, HISTIH2AH, MIS18BP1) [4] | increase of palmitic acid [5] [%] | reduction of 1-Monopalmitin level ([5]; compared to control cells) [fold] | level of 1-Monopalmitin ([5]; vs untreated cells) | level of Adenosine ([5]; vs untreated cells) | level of Decanoic Acid ([5]; vs untreated cells) | IC50 [6] [µM] | IC50 ([2]; HCT-116, SRB, mean ± SEM) [µM] | Guanosine levels ([5]; vs untreated cells)
COC(=O)c1cc(NC2=NC(=O)C(=Cc3ccc(N(C)C)cc3)S2)ccc1OC(C)=O [HH33, Methyl 2-acetoxy-5-[(5-(4-dimethylaminobenzylidene)-4 (H)-oxo-1,3-thiazol-2-yl)-amino]benzoate] | 93.9 | 13.48 | nearby equipotent | 31.9 | 4.89 | 11.4 | 0.81 ± 0.34 | maximally downregulated | 20 | 4.5 | significant decreased | significant decreased; also recorded: significant reduction | significant decreased; also recorded: reduction | 3.91 ± 0.43 |  | 
COC(=O)c1cc(NC2=NC(=O)C(=Cc3ccc(C)cc3)S2)ccc1OC(C)=O [HH32, Methyl 2-acetoxy-5-[(5-(4-methylbenzylidene)-4 (H)-oxo-1,3-thiazol-2-yl)-amino]benzoate] |  | 11.4 |  | 22.9 | 3.88 | 7.8 | 3.44 ± 0.32 |  |  |  |  |  |  | 13.3 ± 0.38 | 1.17 ± 0.46 | altered
